Where a name gives a salt, the structure may show the parent alone. Read-outs that look alike come from different tables or passages of the source.
Columns and labels:
PKCa = biological target: T1, PKCa (Homo sapiens, UniProt P17252); test: PKCa protein kinase assay; assay type: biochemical; settings: for remaining activity at 10 µM: 10 μM compound; for residual kinase activity PKCa: 1 μm compound; for remaining activity at 1 µM: 1 μM compound
T1 construct: All protein kinases were of human origin and encoded full length proteins, unless indicated otherwise; made in house
Excerpt: (§1) All protein kinases were of human origin and encoded full length proteins, unless indicated otherwise. They were either expressed as glutathione S-transferase (GST) fusion proteins in Escherichia Coli or as hexahistidine (His6)-tagged proteins in insect Sf21 cells. GST fusion proteins were purified by affinity chromatography on glutathione-Sepharose, and His6-tagged proteins on nickel/nitriloacetate-agarose. The procedures for expressing some of the protein kinases used herein have been detailed previously.^8,9 The following sections outline the DNA vectors synthesised and the procedures used to express and purifying protein kinases that have not been reported previously.
(§2) All assays (25.5 μl) were carried out at room temperature (21° C.) and were linear with respect to time and enzyme concentration under the conditions used. Assays were performed for 30 min using Multidrop Micro reagent dispensers (Thermo Electron Corporation, Waltham, Mass. 02454, USA) in a 96-well format. The concentration of magnesium acetate in the assays was 10 mM and the [γ-33P] ATP (800 cpm/pmol) was used at 5, 20 or 50 μM as indicated, in order to be at or below the Km for ATP for each enzyme. Protein kinases assayed at 5 μM ATP were: —ERK1, ERK8, PKBα, MARK3, Aurora C. Protein kinases assayed at 20 μM ATP were: —JNK1, PDK1, CHK1, CHK2, CDK2 and Aurora B. Protein kinases assayed at 50 μM ATP were: —MNK2, IKKepsilon and TBK1.
(§3) The assays were initiated with MgATP, stopped by addition of 5 μl of 0.5 M orthophosphoric acid and spotted on to P81 filterplates using a unifilter harvester (PerkinElmer, Boston, Mass. 02118, USA). The IC50 values of inhibitors were determined after carrying out assays at 10 different concentrations of each compound.
(§4) Unless stated otherwise, enzymes were diluted in 50 mM Tris/HCl pH 7.5, 0.1 mM EGTA, 1 mg/ml BSA, 0.1% (v/v) 2-mercaptoethanol and assayed in 50 mM Tris/HCl pH 7.5, 0.1 mM EGTA, 0.1% (v/v) 2-mercaptoethanol.

PHK = PHK protein kinase assay; assay type: biochemical, human; settings: for residual kinase activity: PHK
Excerpt: as §1, §2, §3, §4

IKKb = biological target: T2, IKKb (Homo sapiens, UniProt O14920); test: IKKb protein kinase assay; assay type: biochemical; settings: for remaining activity at 10 µM: 10 μM compound; for residual kinase activity IKKb: 1 μm compound; for remaining activity at 1 µM: 1 μM compound
T2 construct: All protein kinases were of human origin and encoded full length proteins, unless indicated otherwise; made in house
T2 sequence (O14920 1-756): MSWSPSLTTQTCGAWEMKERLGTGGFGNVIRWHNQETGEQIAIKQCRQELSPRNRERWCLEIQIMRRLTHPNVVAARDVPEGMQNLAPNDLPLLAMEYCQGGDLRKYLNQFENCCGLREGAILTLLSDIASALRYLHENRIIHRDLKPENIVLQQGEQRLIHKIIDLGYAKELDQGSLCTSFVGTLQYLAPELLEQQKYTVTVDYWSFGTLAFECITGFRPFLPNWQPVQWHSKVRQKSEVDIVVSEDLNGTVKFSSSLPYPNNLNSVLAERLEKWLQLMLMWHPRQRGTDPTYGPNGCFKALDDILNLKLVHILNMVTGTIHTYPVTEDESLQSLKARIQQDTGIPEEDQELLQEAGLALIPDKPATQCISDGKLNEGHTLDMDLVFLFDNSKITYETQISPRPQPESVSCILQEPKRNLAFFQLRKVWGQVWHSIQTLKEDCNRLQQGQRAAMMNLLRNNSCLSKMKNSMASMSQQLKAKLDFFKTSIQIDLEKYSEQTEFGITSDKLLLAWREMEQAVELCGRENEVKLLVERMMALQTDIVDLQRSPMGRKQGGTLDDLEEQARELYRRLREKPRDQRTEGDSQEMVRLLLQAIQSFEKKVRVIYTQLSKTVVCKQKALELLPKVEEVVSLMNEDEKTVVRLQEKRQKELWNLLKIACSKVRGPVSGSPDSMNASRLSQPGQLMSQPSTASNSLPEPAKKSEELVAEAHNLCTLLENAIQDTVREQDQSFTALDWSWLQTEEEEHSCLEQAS
Excerpt: as §1, §2, §3, §4

YES1 = biological target: T3, YES1 (Homo sapiens, UniProt P07947); test: YES1 protein kinase assay; assay type: biochemical; settings: for remaining activity at 10 µM: 10 μM compound; for residual kinase activity YES1: 1 μm compound; for remaining activity at 1 µM: 1 μM compound
T3 construct: All protein kinases were of human origin and encoded full length proteins, unless indicated otherwise; made in house
T3 sequence (P07947 whole entry): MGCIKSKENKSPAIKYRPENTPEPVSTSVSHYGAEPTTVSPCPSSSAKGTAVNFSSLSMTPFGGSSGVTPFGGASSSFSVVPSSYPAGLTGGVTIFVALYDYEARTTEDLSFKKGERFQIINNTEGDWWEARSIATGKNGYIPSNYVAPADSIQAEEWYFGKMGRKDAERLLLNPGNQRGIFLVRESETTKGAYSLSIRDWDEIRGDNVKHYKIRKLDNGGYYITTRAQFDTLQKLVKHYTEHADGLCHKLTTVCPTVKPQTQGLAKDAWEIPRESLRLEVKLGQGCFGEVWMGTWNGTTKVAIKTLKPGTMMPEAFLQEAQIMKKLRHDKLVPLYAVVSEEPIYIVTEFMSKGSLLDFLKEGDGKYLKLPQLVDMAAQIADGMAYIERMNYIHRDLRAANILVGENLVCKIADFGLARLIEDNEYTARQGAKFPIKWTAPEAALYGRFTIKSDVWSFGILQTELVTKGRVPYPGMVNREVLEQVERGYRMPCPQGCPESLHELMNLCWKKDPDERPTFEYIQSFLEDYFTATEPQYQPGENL
Excerpt: as §1, §2, §3, §4

IR-HIS = IR-HIS protein kinase assay; assay type: biochemical, human; settings: for residual kinase activity: IR-HIS
Excerpt: as §1, §2, §3, §4

EPH-B3 = biological target: T4, EPH-B3 (Homo sapiens, UniProt P54753); test: EPH-B3 protein kinase assay; assay type: biochemical; settings: for remaining activity at 10 µM: 10 μM compound; for residual kinase activity EPH-B3: 1 μm compound; for remaining activity at 1 µM: 1 μM compound
T4 construct: All protein kinases were of human origin and encoded full length proteins, unless indicated otherwise; made in house
T4 sequence (P54753 34-998): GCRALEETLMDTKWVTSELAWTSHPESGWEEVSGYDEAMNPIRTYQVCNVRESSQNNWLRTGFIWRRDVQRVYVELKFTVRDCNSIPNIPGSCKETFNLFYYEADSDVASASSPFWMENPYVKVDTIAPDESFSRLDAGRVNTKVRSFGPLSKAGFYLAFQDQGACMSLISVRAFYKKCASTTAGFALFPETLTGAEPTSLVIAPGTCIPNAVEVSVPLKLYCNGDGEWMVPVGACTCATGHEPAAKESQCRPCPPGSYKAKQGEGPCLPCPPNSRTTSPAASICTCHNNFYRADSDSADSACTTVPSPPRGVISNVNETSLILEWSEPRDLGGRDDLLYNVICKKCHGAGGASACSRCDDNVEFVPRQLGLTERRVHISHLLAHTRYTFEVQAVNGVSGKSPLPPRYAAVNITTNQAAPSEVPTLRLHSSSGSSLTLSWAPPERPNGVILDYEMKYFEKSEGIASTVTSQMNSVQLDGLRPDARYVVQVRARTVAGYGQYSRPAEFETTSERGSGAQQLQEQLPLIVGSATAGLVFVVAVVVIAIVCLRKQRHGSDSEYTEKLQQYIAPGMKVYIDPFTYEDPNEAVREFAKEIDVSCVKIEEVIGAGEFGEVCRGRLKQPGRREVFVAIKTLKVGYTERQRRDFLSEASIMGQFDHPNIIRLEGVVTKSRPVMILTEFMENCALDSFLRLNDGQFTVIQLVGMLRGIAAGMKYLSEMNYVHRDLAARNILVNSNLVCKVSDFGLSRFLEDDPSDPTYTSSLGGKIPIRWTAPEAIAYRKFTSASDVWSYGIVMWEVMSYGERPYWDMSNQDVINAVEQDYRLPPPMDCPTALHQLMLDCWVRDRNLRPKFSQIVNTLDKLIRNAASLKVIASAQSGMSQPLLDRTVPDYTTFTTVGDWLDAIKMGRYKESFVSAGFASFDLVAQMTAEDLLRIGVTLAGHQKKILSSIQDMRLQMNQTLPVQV
Excerpt: as §1, §2, §3, §4

[1] = read-out: residual kinase activity PKCa
[2] = read-out: residual kinase activity IKKb
[3] = read-out: residual kinase activity YES1
[4] = read-out: residual kinase activity EPH-B3
[5] = PKCa, read-out: residual kinase activity
[6] = IKKb, read-out: residual kinase activity
[7] = YES1, read-out: residual kinase activity
[8] = EPH-B3, read-out: residual kinase activity

Row | Compound | remaining activity at 10 µM (PKCa; [1]) | residual kinase activity PKCa (PKCa) | residual kinase activity PHK (PHK; 10 μM compound) | residual kinase activity PHK (PHK; 1 μm compound) | remaining activity at 10 µM (IKKb; [2]) | residual kinase activity IKKb (IKKb) | remaining activity at 10 µM (YES1; [3]) | residual kinase activity YES1 (YES1) | remaining activity at 1 µM (PKCa; [5]) | remaining activity at 10 µM (PKCa; [5]) | residual kinase activity (PHK; 1 μM compound) | residual kinase activity (PHK; 10 μM compound) | remaining activity at 1 µM (IKKb; [6]) | remaining activity at 10 µM (IKKb; [6]) | remaining activity at 1 µM (YES1; [7]) | remaining activity at 10 µM (YES1; [7]) | residual kinase activity (IR-HIS; 1 μM compound) | residual kinase activity (IR-HIS; 10 μM compound) | remaining activity at 1 µM (EPH-B3; [8]) | remaining activity at 10 µM (EPH-B3; [8]) | other results
1 | O=C(NCCCNc1nc(Nc2cccc(F)c2)ncc1Br)C1CCC1 [Compound A, cyclobutanecarboxylic acid {3-[5-bromo-2-(3-fluoro-phenylamino)-pyrimidin-4-ylamino]-propyl}-amide, reference compound] | 49% | 94% | 0% | 7% | 66% | 93% | 8% | 36% |  |  |  |  |  |  |  |  |  |  |  |  | residual kinase activity IR-HIS (IR-HIS; 10 μM compound): 69%; residual kinase activity IR-HIS (IR-HIS; 1 μm compound): 91%; remaining activity at 10 µM (EPH-B3; [4]): 69%; residual kinase activity EPH-B3 (EPH-B3): 92%
2 | O=C(NCCCNc1nc(Nc2cccc(F)c2)ncc1C1CC1)C1CCC1 [Example 23, Cyclobutanecarboxylic acid {3-[5-cyclopropyl-2-(3-fluoro-phenylamino)-pyrimidin-4-ylamino]-propyl}-amide] | 87% | 81% | 3% | 28% | 80% | 75% | 22% | 77% | 81% | 87% | 28% | 3% | 75% | 80% | 77% | 22% | 105% | 86% | 120% | 95% | residual kinase activity IR-HIS (IR-HIS; 10 μM compound): 86%; residual kinase activity IR-HIS (IR-HIS; 1 μm compound): 105%; remaining activity at 10 µM (EPH-B3; [4]): 95%; residual kinase activity EPH-B3 (EPH-B3): 120%
3 | O=C(NCCCNc1nc(Nc2cccc(N3CCCC3=O)c2)ncc1C1CC1)c1cccs1 [Example 47, Thiophene-2-carboxylic acid (3-{5-cyclopropyl-2-[3-(2-oxo-pyrrolidin-1-yl)-phenylamino]-pyrimidin-4-ylamino}-propyl)-amide. Hydrochloride salt] |  |  |  |  |  |  |  |  | 83% | 69% | 78% | 24% | 91% | 86% | 94% | 74% | 105% | 85% | 48% | 93% | 
4 | O=C(NCCCNc1nc(Nc2cccnc2)ncc1C1CC1)c1cccs1 [Example 50, Thiophene-2-carboxylic acid {3-[5-cyclopropyl-2-(pyridin-3-ylamino)-pyrimidin-4-ylamino]-propyl}-amide] |  |  |  |  |  |  |  |  | 85% | 70% | 64% | 15% | 90% | 88% | 82% | 29% | 109% | 109% | 100% | 97% | 

Source: patent US20100056524A1, “Compound” (priority 2008, published 2010)
